Results reported in patent US7285687B2 (priority 2002, dated 2007).
Where two headings read alike, the source gives them in different places.

Key:
male ICR mice [1] = assay: Suppression of spontaneous activity (SA) in mice, i.v.; type: in vivo, mouse; details: for ED50: Mus musculus, iv
Description: (§1) Male ICR mice (25-32 g), obtained from Harlan (Dublin, Va.), were housed in groups of five. All animals were kept in a temperature-controlled (20-22° C.) environment with a 12-hour light-dark cycle (lights on at 7 a.m.). Separate mice were used for testing each drug dose in the in vivo behavioral procedures. Brain tissue for binding studies was obtained from male Sprague-Dawley rats (150-200 g) purchased from Harlan Laboratories (Dublin, Va.).
(§2) Measurement of spontaneous activity in mice occurred in standard activity chambers interfaced with a Digiscan Animal Activity Monitor (Omnitech Electronics, Inc., Columbus, Ohio). A standard tail-flick apparatus and a digital thermometer (Fisher Scientific, Pittsburgh, Pa.) were used to measure antinociception and rectal temperature, respectively.
(§3) Resorcinols were synthesized in our labs (Organix, Inc., Woburn, Mass.) according to the procedure specified below and were suspended in a vehicle of absolute ethanol, Emulphor-620 (Rhone-Poulenc, Inc., Princeton, N.J.), and saline in a ratio of 1:1:18. Drugs were administered to the mice intravenously (i.v.) in the tail vein at a volume of 0.1 ml/10 g.
(§4) Prior to testing in the behavioral procedures, mice were acclimated to the experimental setting (ambient temperature 22-24° C.) overnight. Pre-injection control values were determined for rectal temperature and tail-flick latency (in sec). Five min after i.v. injection with drug or vehicle, mice were placed in individual activity chambers and spontaneous activity was measured for 10 min. […] Tail-flick latency was measured at 20 min post-injection. Maximum latency of 10 sec was used. Antinociception was calculated as percent of maximum possible effect {% MPE=[(test−control latency)/(10-control)]×100}. Control latencies typically ranged from 1.5 to 4.0 sec. At 30 min post-injection, rectal temperature was measured. This value was expressed as the difference between control temperature (before injection) and temperatures following drug administration (° C.). Different mice (n=5-6 per dose) were tested for each dose of each compound. Each mouse was tested in each of the 3 procedures.
(§5) Based on data obtained from numerous previous studies with cannabinoids, maximal cannabinoid effects in each procedure were estimated as follows: 90% inhibition of spontaneous activity, 100% MPE in the tail flick procedure, and −6° C. change in rectal temperature. ED50's were defined as the dose at which half maximal effect occurred. For drugs that produced one or more cannabinoid effect, ED50's were calculated separately using least-squares linear regression on the linear part of the dose-effect curve for each measure in the mouse tetrad, plotted against log10 transformation of the dose. For the purposes of potency comparison, potencies were expressed as μmol/kg.

CB1 receptor = molecular target: T1, CB1 receptor (Rattus norvegicus, UniProt P20272); assay: CB1 binding procedure, displacement of [3H]CP 55,940 from rat whole-brain P2 membranes
T1 construct: whole brain was homogenized and centrifuged; from tissue; host or cells: whole brain of male Sprague-Dawley rats, P2 membrane fraction
Description: as §1
The methods used for tissue preparation and binding have been described previously (Compton et al., 1993) and are similar to those described by Devane et al. (1988). All assays, as described briefly below, were performed in triplicate, and the results represent the combined data from three to six individual experiments.
Following decapitation and rapid removal of the brain, whole brain was homogenized and centrifuged. The resulting pellet was termed P1. The supernatant was saved and combined with the two subsequent supernatants obtained from washing of the P1 pellet. The combined supernatant fractions were centrifuged, resulting in the P2 pellet. After further incubation and centrifuging, this pellet was resuspended in assay buffer to a protein concentration of approximately 2 mg/ml. The membrane preparation was quickly frozen in a bath solution of dry ice and 2-methylbutane (Sigma Chemical Co., St. Louis, Mo.), then stored at −80° C. for no more than 2 weeks. Prior to performing a binding assay an aliquot of frozen membrane was rapidly thawed and protein values determined by the method of Bradford (1976).
Binding was initiated by the addition of 150•g of P2 membrane to test tubes containing 1 nM of [^3H] CP 55,940 (79 Ci/mmol) and a sufficient quantity of buffer to bring the total incubation volume to 1 ml. […] Following incubation at 30° C. for 1 hr, binding was terminated by addition of ice cold buffer and vacuum filtration through pretreated filters in a 12-well sampling manifold (Millipore, Bedford, Mass.). After washing, filters were placed into plastic scintillation vials (Packard, Downer Grove, Ill.) and shaken. The quantity of radioactivity present was determined by liquid scintillation spectrometry.
(§6) In addition, multiple linear regression was used to calculate the overall degree of relationship between CB1 binding affinity and potency in the mouse measures for all active cannabinoids. […] Ki values for CB1 and CB2 binding were obtained from Scatchard displacement analysis as determined via EBDA program of the KELL software package (Biosoft, Milltown, N.J.).

male ICR mice [2] = assay: Change in rectal temperature (RT) in mice, i.v.; type: in vivo, mouse; details: for ED50: Mus musculus, iv
Description: as §1, §2, §3, §4, §5

male ICR mice [3] = assay: Tail-flick antinociception (TF, % MPE) in mice, i.v.; type: in vivo, mouse; details: for ED50: Mus musculus, iv; for T.F. % effect at dose: Table 6
Description: as §1, §2, §3, §4, §5

CB2 receptor = molecular target: T2, CB2 receptor (Homo sapiens, UniProt P34972); assay: CB2 binding procedure, displacement of [3H]CP-55,940 from membranes of transfected CHO cells; details: for CB1/CB2: ratio of CB1 Ki to CB2 Ki
T2 construct: expressed in transfected cells
Description: Membranes for CB2 binding were obtained from CHO cells. The transfected cell line was maintained in Dublecco's Modified Eagle Medium (Gibco BRL, Grand Island, N.Y.) with 10% fetal clone II (HyClone Laboratories, Inc., Logan, Utah) plus 0.3 to 0.5 mg/ml G418 (to maintain selective pressure) under 5% CO2 at 37% C. Cells were harvested with 1 mM EDTA in phosphate-buffered saline and were centrifuged at 1000×g for 5 min at 4% C. The supernatant was saved and the P1 pellet was resuspended in centrifugation buffer. Homogenization and centrifugation were repeated twice and the combined supernatant fractions were centrifuged at 40,000×g for 30 min at 4% C. The P2 pellet was resuspended in centrifugation buffer 2 (Tris HCl, 50 mM; EDTA, 1 mM; and MgCl2, 3 mM, pH 7.4) to a protein concentration of approximately 2 mg/ml. Protein concentrations were determined by the method of Bradford (1976) using Bio-Rad Protein Assay (Bio-Rad, Richmond, Calif.) and BSA standards (fatty acid free, Sigma Chemical Co., St. Louis, Mo.). The membrane preparation was divided into amounts convenient for binding assays and frozen rapidly in dry ice and stored at −80% C.
Binding was initiated by the addition of 50•g of quickly thawed P2 membranes to test tubes containing [^3H]CP-55,940 (final reaction concentration 0.5 nM), an appropriate concentration of unlabeled CP-55,940 or test drug, and sufficient quantity of assay buffer (50 mM Tris-HCl, 1 mM EDTA, 3 mM MgCl2, 5 mg/ml bovine serum albumin, pH 7.4) to bring the total incubation volume to 0.5 ml. Concentration of [^3H]CP-55,940 in saturation studies ranged from 50 to 10,000 pM. […] CP-55,940 and all cannabinoid analogs were-prepared by suspension in assay buffer from a 1 mg/ml ethanolic stock without evaporation of the ethanol (final concentration of no more than 0.4%). In competition studies, analog concentrations ranged from 0.1 nM to 10•M. After incubation at […] for 1 hr, binding was terminated by the addition of 2 ml of ice-cold wash buffer (50 mM Tris-HCl and 1 mg/ml BSA) and vacuum filtration through pre-treated filters in a 12-well sampling manifold (Millipore, Bedford, Mass.). Reaction vessels were washed once with 2 ml of ice-cold wash buffer. Filters were placed into 7-ml plastic scintillation vials (RPI Corp., Mount Prospect, Ill.) with 4 ml of Budget-Solve (RPI Corp.). After shaking for 30 min, the radioactivity present was determined by liquid scintillation spectrometry. Three reaction vessels were used for each drug concentration in each assay. The results represent the combined data of three independent experiments. All assays were performed in siliconized test tubes, which were prepared by air drying (12 hr) inverted borosilicate tubes after two rinses with a 0.1% solution of AquaSil (Pierce, Rockford, Ill.). The GF/C glass-fiber filters (2.4 cm, Baxter, McGaw Park, Ill.) were pre-treated in a 0.1% solution of pH 7.4 polyethylenimine (Sigma Chemical Co.) for at least 6 hr.
as §6

male ICR mice [4] = assay: Lethality noted in the mouse behavioral procedures, i.v.; type: in vivo; details: @ 30 mg/kg, Table 6
Description: as §1
Resorcinols were synthesized in our labs (Organix, Inc., Woburn, Mass.) according to the procedure specified below and were suspended in a vehicle of absolute ethanol, Emulphor-620 (Rhone-Poulenc, Inc., Princeton, N.J.), and saline in a ratio of 1:1:18. […]
Prior to testing in the behavioral procedures, mice were acclimated to the experimental setting (ambient temperature 22-24° C.) overnight. Pre-injection control values were determined for rectal temperature and tail-flick latency (in sec). Five min after i.v. injection with drug or vehicle, mice were placed in individual activity chambers and spontaneous activity was measured for 10 min. […] Tail-flick latency was measured at 20 min post-injection. […] Antinociception was calculated as percent of maximum possible effect {% MPE=[(test−control latency)/(10-control)]×100}. […] At 30 min post-injection, rectal temperature was measured. […]

[5] = 95% confidence limits in parentheses, read-out: ED50 SA (suppression of spontaneous activity)
[6] = mean ± SEM, [3H]CP 55,940, rat brain membranes, read-out: Ki(nM) CB1
[7] = 95% confidence limits in parentheses, read-out: ED50 RT (rectal temperature)
[8] = 95% confidence limits in parentheses, read-out: ED50 TF (antinociception in tail flick assay)
[9] = mean ± SEM, [3H]CP-55,940, transfected CHO cell membranes, read-out: Ki(nM) CB2

T1 sequence (P20272 whole entry): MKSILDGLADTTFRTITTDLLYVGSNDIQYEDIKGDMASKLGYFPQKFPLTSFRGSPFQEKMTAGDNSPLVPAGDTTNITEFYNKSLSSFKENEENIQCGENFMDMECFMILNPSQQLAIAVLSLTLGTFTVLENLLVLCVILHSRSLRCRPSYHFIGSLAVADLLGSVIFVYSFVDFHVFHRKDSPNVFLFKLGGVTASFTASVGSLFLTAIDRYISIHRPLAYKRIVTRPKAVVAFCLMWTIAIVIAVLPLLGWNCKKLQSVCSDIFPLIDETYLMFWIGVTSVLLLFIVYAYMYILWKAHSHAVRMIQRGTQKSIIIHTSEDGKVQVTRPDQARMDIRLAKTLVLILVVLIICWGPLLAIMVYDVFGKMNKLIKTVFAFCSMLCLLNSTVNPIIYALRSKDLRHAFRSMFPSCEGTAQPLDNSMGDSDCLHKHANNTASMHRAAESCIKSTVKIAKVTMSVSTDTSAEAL
T2 sequence (P34972 whole entry): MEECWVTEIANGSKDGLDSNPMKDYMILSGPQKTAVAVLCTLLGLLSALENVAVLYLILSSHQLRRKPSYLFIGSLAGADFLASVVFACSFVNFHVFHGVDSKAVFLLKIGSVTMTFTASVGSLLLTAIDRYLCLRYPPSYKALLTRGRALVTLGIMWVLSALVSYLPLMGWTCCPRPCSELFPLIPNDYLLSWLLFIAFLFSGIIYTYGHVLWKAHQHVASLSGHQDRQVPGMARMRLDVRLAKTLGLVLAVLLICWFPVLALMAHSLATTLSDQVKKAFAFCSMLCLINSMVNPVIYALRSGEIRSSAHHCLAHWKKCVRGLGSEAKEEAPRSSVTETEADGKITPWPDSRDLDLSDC

SMILES: CCCCCCC(C)(C)c1cc(O)c(C2CCCCCC2)c(O)c1 [O-1656, 2-Cycloheptyl-5-(1′,1′-dimethyl-heptyl)-resorcinol]
- ED50 (male ICR mice [1]; [5]): 1.5 µmol/kg
- ED50 (male ICR mice [1]; Table 6, read-out: S.A. ED50): 0.53 mg/kg
- Ki (CB1 receptor; Table 6, read-out: CB1 KI): 17.8 ± 1.4 nM
- Ki (CB1 receptor; [6]): 18 ± 1 nM
- ED50 (male ICR mice [2]; [7]): 0.6 µmol/kg
- ED50 (male ICR mice [2]; Table 6, read-out: R.T. ED50): 0.21 mg/kg
- ED50 (male ICR mice [3]; [8]): 1.2 µmol/kg
- ED50 (male ICR mice [3]; Table 6, read-out: T.F. ED50): 0.39 mg/kg
- Ki (CB2 receptor; Table 6, read-out: CB2 KI): 2.12 ± 0.25 nM
- Ki (CB2 receptor; [9]): 2 ± 0.2 nM
- CB1/CB2 (CB2 receptor): 9

SMILES: CCCCCCC(C)(C)c1cc(O)c(C2CCSC2)c(O)c1 (stereo not shown) [O-1661, 2-(Tetrahydrothiophen-3-yl)-5-(1′,1′-dimethylheptyl)-resorcinol]
- ED50 (male ICR mice [1]; Table 6, read-out: S.A. ED50): 7.65 mg/kg
- CB1/CB2 (CB2 receptor): 5

SMILES: CCCCCCC(C)(C)c1cc(O)c(C2CCN(C)CC2)c(O)c1 [O-1662, 2-(1-Methylpiperidin-4-yl)-5-(1′,1′-dimethylheptyl)-resorcinol]
- S.A. % effect at dose (stim) (male ICR mice [1]; stimulation, @ 10 mg/kg, Table 6): 77% stim@ 10
- R.T. effect at dose (male ICR mice [2]; @ 10 mg/kg, Table 6): 1 °C
- T.F. % effect at dose (male ICR mice [3]; @ 10 mg/kg): 7 @ 10%
- Lethality at dose (male ICR mice [4]): Lethal

SMILES: CCCCCCC(C)(C)c1cc(O)c(C2CCCC(C)(C)C2)c(O)c1 (stereo not shown) [O-1871]
- ED50 (male ICR mice [1]; [5]): < 1 µmol/kg
- ED50 (male ICR mice [1]; Table 6, read-out: S.A. ED50): 0.04 mg/kg
- Ki (CB1 receptor; Table 6, read-out: CB1 KI): 2.3 ± 0.32 nM
- Ki (CB1 receptor; [6]): 2 ± 0.3 nM
- ED50 (male ICR mice [2]; [7]): 1.3 µmol/kg
- ED50 (male ICR mice [2]; Table 6, read-out: R.T. ED50): 0.37 mg/kg
- ED50 (male ICR mice [3]; [8]): 2.3 µmol/kg
- ED50 (male ICR mice [3]; Table 6, read-out: T.F. ED50): 0.7 mg/kg
- Ki (CB2 receptor; Table 6, read-out: CB2 KI): 0.3 ± 0.01 nM
- Ki (CB2 receptor; [9]): 0.3 ± 0.01 nM
- CB1/CB2 (CB2 receptor): 7

SMILES: CCCCCCc1ccc(O)c(C2CCCCC2)c1O [O-2010, 2-Cyclohexyl-4-hexyl resorcinol]
- T.F. % effect at dose (male ICR mice [3]; @ 30 mg/kg): 9.0%@ 30

SMILES: COc1cc(C)cc(OC)c1C1CCCCC1 [O-2299, 2-Cyclohexyl-1,3-dimethoxy-5-methylbenzene]
- Ki (CB1 receptor; Table 6, read-out: CB1 KI): > 10000 nM
- Ki (CB2 receptor; Table 6, read-out: CB2 KI): > 10000 nM
